Laboratory results as given in PubChem BioAssay (NCI).
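Test compounds were applied to cells in 96-well plates for 48 hours at 5 doses. Abbreviation: GI50, concentration required for 50% inhibition of growth. At the TGI there is no net growth.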

Legend:
Test in all cases: DTP human tumour cell line panel, 48 h
SK-MEL-28 melanoma = system: SK-MEL-28 melanoma
HCT-116 colon = system: HCT-116 colon
SK-MEL-2 melanoma = system: SK-MEL-2 melanoma
SF-539 CNS = system: SF-539 CNS
M14 melanoma = system: M14 melanoma
HOP-92 NSCLC = system: HOP-92 NSCLC
TK-10 renal = system: TK-10 renal
HS 578T breast = system: HS 578T breast
HCC-2998 colon = system: HCC-2998 colon
SW-620 colon = system: SW-620 colon
SNB-75 CNS = system: SNB-75 CNS
HT29 colon = system: HT29 colon
EKVX NSCLC = system: EKVX NSCLC
MDA-MB-231 breast = system: MDA-MB-231 breast
SN12C renal = system: SN12C renal
NCI-H460 lung = system: NCI-H460 lung
HOP-62 NSCLC = system: HOP-62 NSCLC
786-0 renal = system: 786-0 renal
MOLT-4 leukemia = system: MOLT-4 leukemia
PC-3 prostate = system: PC-3 prostate
HL-60(TB) leukemia = system: HL-60(TB) leukemia
DU-145 prostate = system: DU-145 prostate
NCI/ADR-RES ovarian = system: NCI/ADR-RES ovarian
K-562 leukemia = system: K-562 leukemia
OVCAR-5 ovarian = system: OVCAR-5 ovarian
MCF7 breast = system: MCF7 breast
LOX IMVI melanoma = system: LOX IMVI melanoma
SK-OV-3 ovarian = system: SK-OV-3 ovarian
RXF 393 renal = system: RXF 393 renal
COLO 205 colon = system: COLO 205 colon

CCOc1ccccc1[C@H]1C(C(=O)c2ccc(Cl)cc2)C2(N[C@@H]1c1ccccc1)C(=O)Nc1ccc(Cl)cc12 (some centres undefined)
GI50 (SK-MEL-28 melanoma): > 18.8 µM | TGI (SK-MEL-28 melanoma): > 18.8 µM | GI50 (HCT-116 colon): 7.48 µM | TGI (HCT-116 colon): > 18.8 µM | GI50 (SK-MEL-2 melanoma): > 18.8 µM | TGI (SK-MEL-2 melanoma): > 18.8 µM | GI50 (SF-539 CNS): > 18.8 µM | TGI (SF-539 CNS): > 18.8 µM | GI50 (M14 melanoma): 12.3 µM | TGI (M14 melanoma): > 18.8 µM | GI50 (HOP-92 NSCLC): 13 µM | TGI (HOP-92 NSCLC): > 18.8 µM | GI50 (TK-10 renal): > 18.8 µM | TGI (TK-10 renal): > 18.8 µM | GI50 (HS 578T breast): > 18.8 µM | TGI (HS 578T breast): > 18.8 µM | GI50 (HCC-2998 colon): 6.18 µM | TGI (HCC-2998 colon): > 18.8 µM | GI50 (SW-620 colon): 13.4 µM | TGI (SW-620 colon): > 18.8 µM | GI50 (SNB-75 CNS): 2.84 µM | TGI (SNB-75 CNS): > 18.8 µM | GI50 (HT29 colon): 14.4 µM | TGI (HT29 colon): > 18.8 µM | GI50 (EKVX NSCLC): 18.6 µM | TGI (EKVX NSCLC): > 18.8 µM | GI50 (MDA-MB-231 breast): 15 µM | TGI (MDA-MB-231 breast): > 18.8 µM | GI50 (SN12C renal): 13.8 µM | TGI (SN12C renal): > 18.8 µM | GI50 (NCI-H460 lung): 7.56 µM | TGI (NCI-H460 lung): > 18.8 µM | GI50 (HOP-62 NSCLC): > 18.8 µM | TGI (HOP-62 NSCLC): > 18.8 µM | GI50 (786-0 renal): > 18.8 µM | TGI (786-0 renal): > 18.8 µM | GI50 (MOLT-4 leukemia): 5.36 µM | TGI (MOLT-4 leukemia): > 18.8 µM | GI50 (PC-3 prostate): 5.51 µM | TGI (PC-3 prostate): > 18.8 µM | GI50 (HL-60(TB) leukemia): 12.8 µM | TGI (HL-60(TB) leukemia): > 18.8 µM | GI50 (DU-145 prostate): > 18.8 µM | TGI (DU-145 prostate): > 18.8 µM | GI50 (NCI/ADR-RES ovarian): > 18.8 µM | TGI (NCI/ADR-RES ovarian): > 18.8 µM | GI50 (K-562 leukemia): 6.2 µM | TGI (K-562 leukemia): > 18.8 µM | GI50 (OVCAR-5 ovarian): > 18.8 µM | TGI (OVCAR-5 ovarian): > 18.8 µM | GI50 (MCF7 breast): 6.01 µM | TGI (MCF7 breast): > 18.8 µM | GI50 (LOX IMVI melanoma): 9.63 µM | TGI (LOX IMVI melanoma): > 18.8 µM | GI50 (SK-OV-3 ovarian): > 18.8 µM | TGI (SK-OV-3 ovarian): > 18.8 µM | GI50 (RXF 393 renal): 16.2 µM | TGI (RXF 393 renal): > 18.8 µM | GI50 (COLO 205 colon): > 18.8 µM
